Source: patent US20250129344A1, “MODIFIED GLUTAMATE DEHYDROGENASE AND APPLICATION THEREOF” (Hunan Lier Biotech Co., Ltd., priority 2021, published 2025)
Numbering of substitutions follows the chain as printed.

What was measured:
Type in all cases: biochemical
Conditions in all cases: PPO 5-100 mM, NADPH 0.15 mM, NH4Cl 50 mM, PBS pH 7.5, 30° C., diluted crude enzyme, 340 nm
[1] = target: T1, Lysinibacillus sphaericus glutamate dehydrogenase (LsGluDH, SEQ ID NO: 2) variant A175G-V173S, SEQ ID NO: 34 (Lysinibacillus pinottii, UniProt A0ABT2DNY0, A175G/V173S); experiment: Dynamic properties (Michaelis-Menten) of LsGluDH mutant, PPO reductive amination
T1 sequence (A0ABT2DNY0 1-457 V173S/A175G): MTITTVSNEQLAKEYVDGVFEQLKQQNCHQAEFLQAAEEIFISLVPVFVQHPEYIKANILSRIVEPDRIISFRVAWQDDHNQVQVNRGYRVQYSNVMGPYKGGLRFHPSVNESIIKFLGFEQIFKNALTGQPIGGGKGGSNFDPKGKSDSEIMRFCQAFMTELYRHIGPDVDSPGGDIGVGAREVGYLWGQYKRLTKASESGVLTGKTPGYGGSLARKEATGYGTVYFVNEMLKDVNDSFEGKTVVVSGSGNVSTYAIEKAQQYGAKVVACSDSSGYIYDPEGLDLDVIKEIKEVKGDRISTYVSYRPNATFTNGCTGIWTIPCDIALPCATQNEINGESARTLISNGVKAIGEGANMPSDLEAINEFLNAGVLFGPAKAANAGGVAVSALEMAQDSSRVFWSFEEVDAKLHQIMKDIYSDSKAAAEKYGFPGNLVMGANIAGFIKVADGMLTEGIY
Protocol: (§1) A plurality of reaction systems (200 μL) comprising PBS of 100 mM pH 7.5 (pH was adjusted with aqueous ammonia solution), NADPH (reductive) of 0.15 mM, NH4Cl of 50 mM, diluted (500 folds) crude enzyme solution of 10% volume and the substrate PPO at various concentrations (5-100 mM) were formulated on a 96-well plate. The intensity of the UV absorption at 340 nm was detected at 30° C., and the rate of change in absorption over time (mA/min) was recorded. The obtained parameters were plugged into Michaelis-Menten equation, in which the reaction velocity was calculated with the rate of change in absorption.
(§2) The mutants were prepared with the coding nucleic acid of LsGluDH (SEQ ID NO: 2) as the template, and the enzyme activities and the dynamic parameters Vmax and Km were measured, according to the method of Example 1. The resulted mutants and the enzyme activities and the dynamic parameters thereof are shown in Table 2, and the relative enzyme activity means the percentage of the enzyme activity of the mutant to the enzyme activity of the mutant of SEQ ID NO: 31.

[2] = target: T2, Lysinibacillus sphaericus glutamate dehydrogenase (LsGluDH, SEQ ID NO: 2) variant A175G-I133V, SEQ ID NO: 33 (Lysinibacillus pinottii, UniProt A0ABT2DNY0, A175G/I133V); experiment: as above
T2 sequence (A0ABT2DNY0 1-457 A175G/I133V): T1 sequence (A0ABT2DNY0 1-457 V173S/A175G) with I133V, S173V
Protocol: as §1, §2

[3] = target: T3, Lysinibacillus sphaericus glutamate dehydrogenase (LsGluDH, SEQ ID NO: 2) variant A175G-V173G, SEQ ID NO: 35 (Lysinibacillus pinottii, UniProt A0ABT2DNY0, A175G/V173G); experiment: as above
T3 sequence (A0ABT2DNY0 1-457 V173G/A175G): T1 sequence (A0ABT2DNY0 1-457 V173S/A175G) with S173G
Protocol: as §1, §2

[4] = target: T4, Lysinibacillus sphaericus glutamate dehydrogenase (LsGluDH, SEQ ID NO: 2) variant A175G, SEQ ID NO: 31 (Lysinibacillus pinottii, UniProt A0ABT2DNY0, A175G); experiment: as above
T4 sequence (A0ABT2DNY0 1-457 A175G): T1 sequence (A0ABT2DNY0 1-457 V173S/A175G) with S173V
Protocol: as §1, §2

[5] = system: Bacillus velezensis glutamate dehydrogenase (BvGluDH, SEQ ID NO: 1) variant A175G-I133V, SEQ ID NO: 6; experiment: Dynamic properties (Michaelis-Menten) of BvGluDH mutant, PPO reductive amination
Protocol: as §1
as §2, with “BvGluDH” for “LsGluDH”, “1)” for “2)”, “1,” for “2,”, “3.” for “31.”

## CP(=O)(O)CCC(=O)C(=O)O [PPO, 2-carbonyl-4-(hydroxymethylphosphono) butyric acid]
[1]
  Km: 62 mM
  Vmax: 106 mA/min
[2]
  Km: 35 mM
  Vmax: 39 mA/min
[3]
  Km: 49 mM
  Vmax: 64 mA/min
[4]
  Km: 49 mM
  Vmax: 39 mA/min
[5]
  Km: 43 mM
  Vmax: 59 mA/min
